Test results from patent US20240366471A1, “MULTIDOSE ANTIBODY DRUG PRODUCTS USING PHENOL OR BENZYL ALCOHOL” (Regeneron Pharmaceuticals, Inc., priority 2023, published 2024).
One block for each compound: values may come before it.

Experiments:
[1] = Purity by SE-UPLC (% HMW, % Main, % LMW) on storage; format: physicochemical; settings: stress conditions (40° C. and 45° C.)
Method: To determine the effect of preservatives on high molecular weight (HMW) complex formation for different mAbs formulations, various antibodies were incubated at 40° C. over the course of 3 months with or without tested preservatives.
To determine the effect of preservatives on high molecular weight (HMW) complex formation for different mAbs formulations, various antibodies were incubated at 25° C. over the course of 6 months with or without tested preservatives.

[2] = Compatibility of preservatives with mAb formulations; format: physicochemical; settings: preservative in mAb formulations, incompatibility seen as turbidity
[3] = Overall storage stability of mAb formulations with preservatives; settings: all storage conditions
Method: Storage stability of the Fc-containing proteins were assessed at various temperatures, as will be described in further detail, including at 5° C., 25° C., 40° C., and 45° C., to enable kinetic degradation profiling, if applicable.
The sample formulations with preservatives were compared to the control formulations without preservatives to evaluate the effect of preservatives on protein stability.

mAb aggregation detected by SE-UPLC (in words) [1]: higher mAb aggregation
Compound: OCc1ccccc1 [benzyl alcohol]

Compound: Cc1cccc(O)c1 [m-cresol]
compatibility with the mAb formulations [2]: not compatible
compatibility with the mAb formulations ([2]; listed as cresol): incompatible

Compound: Oc1ccccc1 [phenol]
destabilizing effect of preservative on mAbs (in words) [3]: least destabilization effect
destabilizing effect of preservative on mAbs (in words) ([3]; listed as Phenol): only minimal destabilizing effect
